For data set [1], the system named is Human immunodeficiency virus 1. In words: Antiviral activity against HIV-1 9498 infected in C8166 cells. Type of data set: functional, organism-based. Conditions: Human immunodeficiency virus 1, 9498, C8166.
In data set [2] the target is T1, Protein cereblon/Virion infectivity factor (Human immunodeficiency virus type 1 group M subtype B (isolate NY5)(HIV-1)) (UniProt Q96SW2+P12504). In words: PROTAC activity at CRBN (unknown origin)/Vif in HIV-1 TREX-hvif-15 cells assessed as reduction in Vif protein level at 50 uM by Western blotting analysis. Format: cell-based. Conditions: TREX-hvif-15 cell.
Data set [3] deals with Human immunodeficiency virus 1. Description: Antiviral activity against HIV-1 IIIB infected in C8166 cells. Type of data set: functional, organism-based. The note with it: Human immunodeficiency virus 1, IIIB.
The subject of data set [4] is Human immunodeficiency virus 1. Description: Antiviral activity against HIV-1 4755-5 infected in C8166 cells. Type of data set: functional, organism-based. The note with it: Human immunodeficiency virus 1, 4755-5, C8166.
For data set [5], the system named is Human immunodeficiency virus 1. In words: Antiviral activity against HIV-1 WAN infected in PHA-P stimulated PBMCs. Type of data set: functional, organism-based. Conditions: Human immunodeficiency virus 1, WAN, PBMC.
In data set [6] the test system is Human immunodeficiency virus 1. In words: Antiviral activity against HIV-1 2802 infected in C8166 cells. Format: functional, organism-based. Conditions: Human immunodeficiency virus 1, 2802, C8166.
The test system of data set [7] is Human immunodeficiency virus 1. Description: Antiviral activity against HIV-1 A17 infected in C8166 cells. Conditions: Human immunodeficiency virus 1, A17, C8166. Format: functional, organism-based.
Data set [8] deals with Human immunodeficiency virus 1. In words: Antiviral activity against HIV-1 G140S/Q148H infected in C8166 cells. The note with it: Human immunodeficiency virus 1, G140S/Q148H. Type of data set: functional, organism-based.
Data set [9] can be described thus: Cytotoxicity against human PBMCs. Type of data set: toxicity, cell-based, PBMC.
In data set [10] the target is T1, Protein cereblon/Virion infectivity factor (Human immunodeficiency virus type 1 group M subtype B (isolate NY5)(HIV-1)). Description: PROTAC activity at CRBN (unknown origin)/Vif in HIV-1 TREX-hvif-15 cells assessed as reduction in Vif protein level at 100 uM incubated for 24 hrs by Western blotting analysis. Type of data set: cell-based. More on the design: scale not given: the % may be the effect or the level left. Conditions: TREX-hvif-15 cell. On the technique in general: In western blotting, separated proteins are transferred to a membrane and probed.

In data set [11] the test system is Human immunodeficiency virus 1. Description: Antiviral activity against HIV-1 KIZ002 infected in PHA-P stimulated PBMCs. Format: functional, organism-based. The note with it: Human immunodeficiency virus 1, KIZ002, PBMC.
Data set [12] deals with T1, Protein cereblon/Virion infectivity factor (Human immunodeficiency virus type 1 group M subtype B (isolate NY5)(HIV-1)). Description: PROTAC activity at CRBN (unknown origin)/Vif in HIV-1 TREX-hvif-15 cells assessed as reduction in Vif protein level incubated for 24 hrs by Western blotting analysis. Format: cell-based. Conditions: TREX-hvif-15 cell, dose 3.125-50 µM.

Data set [13] in a line: Cytotoxicity against human TZM-bl cells. Type of data set: toxicity, cell-based.
The nature of data set [14]: Therapeutic index, ratio of CC50 for human TZM-bl cells to EC50 for HIV IIIB infected in TZM-bl cells. Conditions: read-out: Ratio CC50/EC50. Type of data set: toxicity, cell-based.
Data set [15] deals with Human immunodeficiency virus 1. Description: Antiviral activity against HIV-1 IIIB infected in TZM-bl cells. Format: functional, organism-based. Conditions: Human immunodeficiency virus 1, IIIB.
The test system of data set [16] is Human immunodeficiency virus 1. In words: Antiviral activity against HIV1 at 50 uM measured after 8 hrs. Format: functional, organism-based.
Data set [17] concerns the target T1, Protein cereblon/Virion infectivity factor (Human immunodeficiency virus type 1 group M subtype B (isolate NY5)(HIV-1)). Description: PROTAC activity at CRBN (unknown origin)/Vif in HIV-1 TREX-hvif-15 cells assessed as reduction in Vif protein level at 50 uM pretreated with MG132 followed by compound addition and measured after 24 hrs by Western blotting analysis. Type of data set: cell-based. The note with it: TREX-hvif-15 cell.

The subject of data set [18] is Human immunodeficiency virus 1. In words: Antiviral activity against HIV1 at 1 uM measured after 2 to 4 hrs. Format: functional, organism-based. The note with it: time 2-4 hrs.
For data set [19], the system named is Human immunodeficiency virus 1. Description: Antiviral activity against HIV1 at 1 uM measured after 8 hrs. Format: functional, organism-based.

pEC50: −log10 of the molar value. Calls of active or inactive are those of the source. The calls are words filed in the database; no cut-off is given here. Some results are limits rather than exact numbers.

Results on two compounds are retold here after ChEMBL document CHEMBL6127009, “Discovery of L15 as a novel Vif PROTAC degrader with antiviral activity against HIV-1” (Bioorg Med Chem Lett, 2024).

By pEC50 is commonly meant the EC50 on a negative log10 scale, so that one unit is a factor of ten. What is called CC50 is the concentration that lowers cell viability or growth by half.

T1 sequence (P12504 whole entry, looked up): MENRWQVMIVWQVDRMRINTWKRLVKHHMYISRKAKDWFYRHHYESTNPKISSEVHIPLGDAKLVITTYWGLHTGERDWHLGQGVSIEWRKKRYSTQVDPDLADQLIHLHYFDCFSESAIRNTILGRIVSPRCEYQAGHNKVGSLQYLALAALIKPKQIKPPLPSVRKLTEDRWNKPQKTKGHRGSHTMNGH
T1 sequence (Q96SW2 whole entry, looked up): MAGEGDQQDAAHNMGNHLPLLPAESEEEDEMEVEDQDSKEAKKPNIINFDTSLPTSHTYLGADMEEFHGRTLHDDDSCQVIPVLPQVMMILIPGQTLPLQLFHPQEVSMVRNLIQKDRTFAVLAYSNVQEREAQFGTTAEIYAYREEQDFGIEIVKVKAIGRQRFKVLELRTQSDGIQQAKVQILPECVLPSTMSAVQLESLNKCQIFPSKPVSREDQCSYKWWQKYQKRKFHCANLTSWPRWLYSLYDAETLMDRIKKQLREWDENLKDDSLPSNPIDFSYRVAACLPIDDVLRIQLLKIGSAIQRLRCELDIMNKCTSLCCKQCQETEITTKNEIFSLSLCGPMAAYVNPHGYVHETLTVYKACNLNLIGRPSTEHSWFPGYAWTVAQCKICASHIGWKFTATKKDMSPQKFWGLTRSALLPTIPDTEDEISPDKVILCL

`COc1ccc(OCC(=O)NCCOCCOCCNc2cccc3c2C(=O)N(C2CCC(=O)NC2=O)C3=O)cc1NC(=O)c1c(N)cccc1Sc1ccc([N+](=O)[O-])cc1` (stereo not given): the negative-log EC50 (pEC50) is 5.02 in data set [1]; 4.98 in [3]; 4.87 in data set [4]; 5.06 in data set [5]; 5.14 in [6]; less than 4.00 in [7]. The figures for the pEC50 in [8], in data set [11] and in data set [15] were 5.07, 4.98 and 4.48, respectively. Further, the outcome in data set [2] and in data set [16] was Active. For the same compound, the CC50 in data set [9] and in [13] was more than 200 µM each time. Moreover, the Activity in data set [10] was 100%; in [12] it was “Dose-Dependent Effect”. The selectivity ratio in data set [14] is more than 6. Further, the result in data set [17] was inactive.

As to `Nc1ccn([C@@H]2CS[C@H](CO)O2)c(=O)n1` [LAMIVUDINE], the result in data set [18] was Active. In addition, the pEC50 in data set [3] was 6.80; in data set [4] it was 4.11; in [5], 6.82; in [7], 6.55; in [8], 5.25; in [11], 7.05. Besides, the outcome in data set [19] was inactive.
